Experiments:
Details in all cases: one-leaf stage, 80 g/ha, assessed visually after about 3 weeks vs untreated controls, 100% = plants have died
ECHCG = experiment: Post-emergence herbicidal effect against ECHCG; assay type: in vivo, Echinochloa crus-galli
How it was run: (§1)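 Visual scoring about 3 weeks after treatment gave % herbicidal action relative to untreated plants (0% = control-like, 100% = plants dead). Compounds, as WP or EC with 0.2% wetting agent, were sprayed onto green parts at 600–800 l/ha. Plants had reached the one-leaf stage, 2–3 weeks after sowing in sandy loam under greenhouse conditions.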

ALOMY = experiment: Post-emergence herbicidal effect against ALOMY; assay type: in vivo, Alopecurus myosuroides
How it was run: as §1

AVEFA = experiment: Post-emergence herbicidal effect against AVEFA; assay type: in vivo, Avena fatua
How it was run: as §1

DIGSA = experiment: Post-emergence herbicidal effect against DIGSA; assay type: in vivo, Digitaria sanguinalis
How it was run: as §1

HORMU = experiment: Post-emergence herbicidal effect against HORMU; assay type: in vivo, Hordeum murinum
Description: Seeds of monocotyledonous and dicotyledonous weed and crop plants are laid out in sandy loam soil in wood-fiber pots, covered with soil and cultivated in a greenhouse under good growth conditions. 2 to 3 weeks after sowing, the test plants are treated at the one-leaf stage. The compounds of the invention, formulated in the form of wettable powders (WP) or as emulsion concentrates (EC), are then sprayed onto the green parts of the plants as aqueous suspension or emulsion at a water application rate equating to 600 to 800 l/ha with addition of 0.2% wetting agent. After the test plants have been left to stand in the greenhouse under optimal growth conditions for about 3 weeks, the action of the preparations is assessed visually in comparison to untreated controls (herbicidal action in percent (%): 100% activity=the plants have died, 0% activity=like control plants).

LOLRI = experiment: Post-emergence herbicidal effect against LOLRI; assay type: in vivo, Lolium rigidum
How it was run: as §1

SETVI = experiment: Post-emergence herbicidal effect against SETVI; assay type: in vivo, Setaria viridis
How it was run: as §1

SMILES | Post-emergence action [%] against ECHCG (ECHCG) [%] | Post-emergence action [%] against ALOMY (ALOMY) [%] | Post-emergence action [%] against AVEFA (AVEFA) [%] | Post-emergence action [%] against DIGSA (DIGSA) [%] | Post-emergence action [%] against HORMU (HORMU) [%] | Post-emergence action [%] against LOLRI (LOLRI) [%] | Post-emergence action [%] against SETVI (SETVI) [%]
CC#Cc1cc(C)c(C2=C(OC(=O)OCC)C3(CCC(OCC)CC3)NC2=O)c(Cl)c1 (stereo not shown) [Example P16] | 100 | 100 | 100 | 100 | 100 | 100 | 100
CC#Cc1cc(C)c(C2=C(OC(=O)OC)C3(CCC(OC)CC3)NC2=O)c(Cl)c1 (stereo not shown) [Example P10] | 100 | 100 | 100 | 100 | 100 | 100 | 100
CC#Cc1cc(C)c(C2=C(OC(=O)OCC)C3(CCC(OC(C)C)CC3)NC2=O)c(Cl)c1 (stereo not shown) [Example P15] | 100 | 100 | 100 | 100 | 90 | 100 | 100
CC#Cc1cc(C)c(C2=C(OC(=O)OCC)C3(CCCC(OCCC)C3)NC2=O)c(Cl)c1 (stereo not shown) [Example Q5] | 100 | 100 | 100 | 100 | 100 | 100 | 100

— US20220151230A1, “SPECIFICALLY SUBSTITUTED 3-(2-HALOGEN-6-ALKYL-4-PROPINYLPHENYL)-3-PYRROLIN-2-ONES AND TO THE USE THEREOF AS HERBICIDES” (Bayer Aktiengesellschaft, priority 2019, published 2022)
